# Data from US4350700A, “Pharmaceutical composition containing 1,3,5-substituted biuret compound” (Taiho Pharmaceutical Company, Limited, priority 1979, dated 1982).
# Where two headings read alike, the source gives them in different places.
# Legend:
# ddy strain of male mice = test: Acute toxicity (oral, general symptom and death observed for 7 days); format: in vivo; settings: for Acute toxicity, death number of mice/number of mice tested: 7 days
# Procedure: (§1) Next, several tests for determining the pharmacological properties, in that acute toxicity, anti-pyretic activity, analgesic activity and anti-inflammatory activity of the present 1,3,5-substituted biuret compounds of the formula (1) were conducted and the test results are shown in Table (2). In the tests, each compounds to be tested was used as a suspension in 0.25% carboxymethylcellulose solution. Methods for testing are explained as follows:
# The ddy strain of male mice (body weight, 20-25 g) were used as test animals. The mice were fasted overnight and the compound to be tested was administered orally. […] The lethal dose (mg/kg, body weight) of the test compound was determined in connection with the death number of mice/the number of mice tested. In Table 2, the values indicated with Δ marks are 50% lethal dose, LD50 (mg/kg, body weight).
# [1] = test system: 10% dry-yeast suspension-induced fever of rats; test: Anti-pyretic activity (dry-yeast induced fever, febril index); format: in vivo, rats (Wistar strain, male); settings: oral, febril index up to 4 hours after administration, dose not stated
# Procedure: as §1
# According to the method reported by Tanabe [Folia Pharmacologia Japonica, Vol. 73, pp. 803 (1977)], the Wistar strain of male rats (150-180 g body weight) were used as test animals. The rats were fasted overnight, and 1 ml/100 g (body weight) of 10% dry-yeast suspension were subcutaneously injected on the back of the rats. Five hours afte the injection, the test compound was administered orally, then the body temperature of the rat was measured time sequences. Anti-pyretic activity of the test compound was determined as the FI (febril index) by integrating pyrogenetic curve up to 4 hours after the administration of the test compound with time, and indicated as inhibitory ratio (%) shown by the following formula, [formula]
# [2] = test system: pain reaction of the mouse caused by a clamp; test: Analgesic activity, Haffner method; format: in vivo, mice (ddy strain, male); settings: for Analgesic activity, Haffner method, inhibitory ratio: mice
# Procedure: as §1
# According to the modified method reported by Fujimura et al., [Bulletin of the Institute for Chemical Research, Kyoto University, No. 25, pp. 36 (1951)], the ddy strain of male mice (body weight, 20-25 g) were used as test animals. The mice were fasted overnight, 100 mg/kg body weight of the test compound was administered orally, then 45 minutes after the administration, the threshhold amount (1.5-2.5 mg/kg body weight) of morphine hydrochloride was injected subcutaneously. Then 1-hour pain reaction of the mouse caused by a clamp was observed. Analgesic activity of the test compound was calculated as the inhibitory ratio (%). In Table 2, the values in parentheses show the data obtained from the test by using the dosage other than 100 mg/kg body weight. Further, the values indicated with Δ marks show 50% effective dose, ED50 (mg/kg body weight).
# [3] = test system: carrageenin-induced inflammation of the hindpaw of the rat; test: Anti-inflammatory activity, acute carrageenin-induced inflammatory test; format: in vivo, rats (Wistar strain, male)
# Procedure: as §1
# 4. Anti-inflammatory Activity
# According to the method of acute carrageenin-induced inflammatory test [Folia Pharmacologia Japonica, Vol. 56, pp. 575 (1960)], the Wistar strain of male rats (body weight, 150-180 g) were used as test animals. The rats were fasted overnight, 100 mg/kg body weight of the test compound was administered orally, then 1 hour after the administration, 0.1 ml of 1% carrageenin solution, as the inflammation inducing agent, was injected subcutaneously to the hindpaw of the rat and the volume of the hindpaw was measured at time sequences. Anti-inflammatory activity of the test compound was calculated as inflammation inhibitory ratio (%) at 3 hours after the injection of inflammation inducing agent.
# [4] = test system: acetic acid-induced stretching symptom of mouse; test: Analgesic activity, acetic acid-induced stretching method; format: in vivo, mice (ddy strain, male); settings: read-out: Analgesic activity, acetic acid-induced stretching method, inhibitory ratio
# Procedure: as §1
# (1) Acetic acid-induced stretching method
# According to the method reported by Koster et.al., [Fed. Proc., Vol. 18, pp. 412 (1959)], the ddy strain of male mice (body weight, 20-25 g) were used as test animals. The mice were fasted overnight, 100 mg/kg body weight of the test compound was administered orally, then 1 hour after the administration, 0.2 ml of 0.7% acetic acid solution was injected intraperitoneally. The acetic acid-induced stretching symptom of mouse was observed. Analgesic activity of the test compound was calculated as the inhibitory ratio (%). In Table 2, the values in parentheses show the data obtained from the test by using the dosage other than 100 mg/kg body weight. Further, the values indicated with Δ marks show 50% effective dose, ED50 (mg/kg body weight).
# [5] = Rattus norvegicus, 100 mg/kg oral, rats, 3 hours after carrageenin, read-out: Anti-inflammatory activity, inflammation inhibitory ratio
# [6] = Rattus norvegicus, po, 3 h, read-out: Anti-inflammatory activity, inflammation inhibitory ratio
Compound,"Anti-pyretic activity, inhibitory ratio [1] [%]","Analgesic activity, Haffner method, inhibitory ratio ([2]; 100 mg/kg oral) [%]","Acute toxicity, death number of mice/number of mice tested (ddy strain of male mice; 2000 mg/kg oral)",inhibition in vivo at 100 mg/kg ([4]; po) [%],"inhibition in vivo at 100 mg/kg [3, 5] [%]","Acute toxicity, death number of mice/number of mice tested (ddy strain of male mice; 1000 mg/kg oral)",further results
"1,3-Dimethyl-5-(4-methyl-2-pyridyl)biuret [compound 18]",60,25,,,,,"Acute toxicity, 50% lethal dose LD50 (ddy strain of male mice; oral, 7 days observation (Δ values)): 1500 mg/kg; Anti-inflammatory activity, inflammation inhibitory ratio ([3]; 100 mg/kg oral, rats, 3 hours after carrageenin): 20%"
CNC(=O)N(C)C(=O)Nc1ccccc1F [Compound No. 4],79,25,0/4,37.5,41,,
"CNC(=O)N(C)C(=O)Nc1ccccc1Cl [Compound No. 5, 1,3-Dimethyl-5-(2-chlorophenyl)biuret]",28,,0/4,,,,"inhibition in vivo at 200 mg/kg ([4]; po): 37.5%; Analgesic activity, Haffner method, inhibitory ratio ([2]; 200 mg/kg oral): 37.5%; inhibition in vivo at 200 mg/kg ([3]; Rattus norvegicus, 200 mg/kg oral, rats, 3 hours after carrageenin, read-out: Anti-inflammatory activity, inflammation inhibitory ratio): 53%"
"CCCNC(=O)N(C)C(=O)Nc1ccccc1 [Compound No. 41, 1-n-Propyl-3-methyl-5-phenylbiuret]",65,37.5,0/4,62.5,67,,
"CC(C)NC(=O)N(C)C(=O)Nc1ccccc1 [Compound No. 43, 1-Isopropyl-3-methyl-5-phenylbiuret]",38,25,0/4,50,,,"inhibition in vivo at 100 mg/kg [3, 6]: 51%"
C=CCNC(=O)N(C)C(=O)Nc1ccccc1 [Compound No. 45],125,12.5,4/4,50,,2/4,"inhibition in vivo at 100 mg/kg [3, 6]: 59%"
CCCCNC(=O)N(C)C(=O)Nc1ccccc1 [Compound No. 47],19,62.5,0/4,75,27,,
"CC(C)CNC(=O)N(C)C(=O)Nc1ccccc1 [Compound No. 49, 1-Isobutyl-3-methyl-5-phenylbiuret]",55,,0/4,,57,,"inhibition in vivo at 40 mg/kg ([4]; po): 50%; ED50 ([2]; Mus musculus, oral, mice (Δ values; range in parentheses), read-out: Analgesic activity, Haffner method, 50% effective dose ED50): 50 mg/kg"
"CNC(=O)N(C)C(=O)Nc1ccccc1C(F)(F)F [compound 7, 1,3-Dimethyl-5-(2-trifluoromethylphenyl)biuret]",121,12.5,3/4,62.5,,0/4,
"CNC(=O)N(C)C(=O)Nc1ccc(CC(=O)O)cc1 [compound 11, 1,3-Dimethyl-5-(4-carboxymethylphenyl)biuret]",7,37.5,0/4,25,,,
CNC(=O)N(C)C(=O)Nc1cc(C)ccn1 [compound 17],55,25,3/4,,,0/4,"inhibition in vivo at 100 mg/kg ([4]; 100 mg/kg oral, mice): 25%; inhibition in vivo at 100 mg/kg [3, 6]: 33%"
CNC(=O)N(C)C(=O)Nc1nccs1 [compound 20],112,25,,,46,3/4,"inhibition in vivo at 100 mg/kg ([4]; 100 mg/kg oral, mice): 25%"
"CCNC(=O)N(C)C(=O)Nc1ccc(F)cc1 [compound 32, 1-Ethyl-3-methyl-5-(4-fluorophenyl)biuret]",63,37.5,4/4,,,2/4,"inhibition in vivo at 100 mg/kg ([4]; 100 mg/kg oral, mice): 100%"
"CCNC(=O)N(C)C(=O)Nc1ccc(N(C)C)cc1 [compound 33, 1-Ethyl-3-methyl-5-(4-dimethylaminophenyl)biuret]",87,25,4/4,62.5,,0/4,"inhibition in vivo at 100 mg/kg [3, 6]: 30%"
"CCNC(=O)N(C)C(=O)Nc1ccc(OC)cc1 [compound 35, 1-Ethyl-3-methyl-5-(4-methoxyphenyl)biuret]",112,62.5,4/4,,19,0/4,"inhibition in vivo at 100 mg/kg ([4]; 100 mg/kg oral, mice): 87.5%"
"CCNC(=O)N(C)C(=O)Nc1ccc(C)cc1 [compound 38, 1-Ethyl-3-methyl-5-(4-methylphenyl)biuret]",80,25,3/4,,,0/4,"inhibition in vivo at 100 mg/kg ([4]; 100 mg/kg oral, mice): 87.5%"
"CCNC(=O)N(C)C(=O)Nc1ccc(C)c(C)c1 [compound 39, 1-Ethyl-3-methyl-5-(3,4-dimethylphenyl)biuret]",8,37.5,0/4,50,,,
"CCCCCNC(=O)N(C)C(=O)Nc1ccccc1 [compound 52, 1-n-Pentyl-3-methyl-5-phenylbiuret]",38,37.5,0/4,62.5,,,
"CN(C)CCNC(=O)N(C)C(=O)Nc1ccccc1 [compound 55, 1-(2-Dimethylaminoethyl)-3-methyl-5-phenylbiuret]",,12.5,,12.5,22,3/4,"Acute toxicity, death number of mice/number of mice tested (ddy strain of male mice; 500 mg/kg oral): 2/4"
"CN(C(=O)NCCO)C(=O)Nc1ccccc1 [compound 56, 1-(2-Hydroxyethyl)-3-methyl-5-phenylbiuret]",,37.5,0/4,62.5,42,,
"CONC(=O)N(C)C(=O)Nc1ccccc1 [compound 63, 1-Methoxy-3-methyl-5-phenylbiuret]",,25,4/4,50,,0/4,"inhibition in vivo at 100 mg/kg [3, 6]: 50%"
